Source: ChEMBL document CHEMBL1201862, “PubChem BioAssay data set” (2004)
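Assay format: 96-well plates, 48-hour exposure. GI50 marks 50% less growth.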 The source made the active and inactive calls. No stated cut-off is given here; in the data, active = GI50 up to about 1.1 µM and inactive = higher.

Key:
Test in all cases: DTP human tumour cell line panel, 48 h
A549 = tested on: A549
HCC 2998 = tested on: HCC 2998
MOLT-4 = tested on: MOLT-4
OVCAR-3 = tested on: OVCAR-3
CAKI-1 = tested on: CAKI-1
SR = tested on: SR
786-0 = tested on: 786-0
ACHN = tested on: ACHN
UO-31 = tested on: UO-31
RXF 393 = tested on: RXF 393
CCRF-CEM = tested on: CCRF-CEM
UACC-62 = tested on: UACC-62
NCI-H23 = tested on: NCI-H23
KM-20L2 = tested on: KM-20L2
SW-620 = tested on: SW-620
OVCAR-4 = tested on: OVCAR-4

Measured: GI50

COCCN1C2=CCCCC2=Nc2c1nc(N)[nH]c2=O
inactive: A549 > 100 µM | HCC 2998 > 100 µM | MOLT-4 > 100 µM | OVCAR-3 > 100 µM | CAKI-1 > 100 µM | SR > 100 µM | 786-0 > 100 µM | ACHN > 100 µM | UO-31 > 100 µM | RXF 393 > 100 µM | CCRF-CEM > 100 µM | UACC-62 > 100 µM | NCI-H23 > 100 µM | KM-20L2 > 100 µM

CCOP(=O)(OCC)OC(C#N)c1ccc(-c2ccccc2)cc1 (stereo unspecified)
inactive: A549 18.4 µM | HCC 2998 28.5 µM | MOLT-4 14.2 µM | SW-620 13.7 µM | OVCAR-3 19.1 µM | CAKI-1 22.4 µM | SR 30 µM | OVCAR-4 21.1 µM | 786-0 16.9 µM | ACHN 33 µM | UO-31 47.3 µM | CCRF-CEM 22.4 µM | UACC-62 13.9 µM | NCI-H23 27 µM | KM-20L2 41.3 µM

N#Cc1cc([N+](=O)[O-])ccc1NC(=O)C(=O)C(C(=O)/C=C/c1ccccc1)C1OC(=O)c2ccccc21 (stereo unspecified)
inactive: A549 > 100 µM | HCC 2998 > 100 µM | SW-620 > 100 µM | OVCAR-3 > 100 µM | CAKI-1 > 100 µM | SR 1.69 µM | OVCAR-4 > 100 µM | 786-0 > 100 µM | ACHN > 100 µM | UO-31 > 100 µM | RXF 393 60.5 µM | CCRF-CEM 8.65 µM | UACC-62 > 100 µM | NCI-H23 > 100 µM | KM-20L2 > 100 µM

CC1(C)COC(c2cccnc2/C=N/O)=N1
inactive: A549 > 100 µM | MOLT-4 > 100 µM | SW-620 67.8 µM | OVCAR-3 > 100 µM | CAKI-1 > 100 µM | SR > 100 µM | OVCAR-4 > 100 µM | 786-0 > 100 µM | ACHN > 100 µM | UO-31 > 100 µM | RXF 393 > 100 µM | CCRF-CEM > 100 µM | UACC-62 > 100 µM | NCI-H23 > 100 µM | KM-20L2 > 100 µM

CCCC1N2CCCCC2[C@@H]2c3[nH]c4ccccc4c3CCN12 (stereo partly specified)
inactive: A549 > 100 µM | HCC 2998 > 100 µM | MOLT-4 > 100 µM | SW-620 > 100 µM | OVCAR-3 > 100 µM | CAKI-1 > 100 µM | OVCAR-4 > 100 µM | 786-0 > 100 µM | ACHN > 100 µM | UO-31 > 100 µM | RXF 393 > 100 µM | CCRF-CEM > 100 µM | UACC-62 85.1 µM | NCI-H23 > 100 µM | KM-20L2 > 100 µM

Cc1cc(C)nc(NS(=O)(=O)c2ccc(Nc3c4ccccc4nc4c(C(=O)Nc5ccc(S(=O)(=O)N=C(N)N)cc5)cccc34)cc2)n1
inactive: A549 > 100 µM | HCC 2998 > 100 µM | MOLT-4 > 100 µM | SW-620 > 100 µM | OVCAR-3 > 100 µM | CAKI-1 > 100 µM | OVCAR-4 > 100 µM | 786-0 > 100 µM | ACHN > 100 µM | UO-31 85.3 µM | RXF 393 24.4 µM | CCRF-CEM > 100 µM | UACC-62 > 100 µM | NCI-H23 > 100 µM | KM-20L2 > 100 µM

O=C(CCC(=O)Nc1ccc(Cl)cc1)CC(=O)c1ccc(F)cc1
inactive: A549 > 100 µM | HCC 2998 > 100 µM | MOLT-4 > 100 µM | SW-620 > 100 µM | OVCAR-3 > 100 µM | CAKI-1 > 100 µM | SR > 100 µM | OVCAR-4 > 100 µM | 786-0 > 100 µM | ACHN > 100 µM | UO-31 > 100 µM | UACC-62 > 100 µM | NCI-H23 > 100 µM | KM-20L2 > 100 µM

CC(C)(C)C(=O)C1CC(=O)c2ccccc2C1=O (stereo unspecified)
inactive: A549 38.2 µM | HCC 2998 23.4 µM | MOLT-4 27.8 µM | SW-620 32.4 µM | OVCAR-3 24.3 µM | CAKI-1 39.6 µM | OVCAR-4 33 µM | 786-0 32.6 µM | ACHN 44.7 µM | UO-31 21.7 µM | RXF 393 22.2 µM | CCRF-CEM 33.4 µM | UACC-62 25.8 µM | NCI-H23 20.7 µM | KM-20L2 38 µM

COc1ccc(/C=C\c2cc(OC)c(O[Si](C)(C)C(C)(C)C)c(OC)c2)cc1
inactive: A549 38.6 µM | HCC 2998 26.1 µM | MOLT-4 15.8 µM | SW-620 33.3 µM | OVCAR-3 55.5 µM | CAKI-1 49.3 µM | SR 19.7 µM | OVCAR-4 76.6 µM | 786-0 39.9 µM | ACHN 31.2 µM | UO-31 80.9 µM | CCRF-CEM 23.7 µM | UACC-62 55 µM | NCI-H23 54 µM | KM-20L2 45.3 µM

C#CCC(O)c1ccccc1C(O)CC#C (stereo unspecified)
inactive: A549 > 100 µM | HCC 2998 89.3 µM | MOLT-4 > 100 µM | SW-620 > 100 µM | OVCAR-3 > 100 µM | CAKI-1 65.2 µM | OVCAR-4 > 100 µM | 786-0 > 100 µM | ACHN 75.5 µM | UO-31 > 100 µM | RXF 393 29 µM | CCRF-CEM > 100 µM | UACC-62 > 100 µM | NCI-H23 > 100 µM | KM-20L2 > 100 µM

COC(=O)C12CCC(CC1=O)C2(C)C (stereo unspecified)
inactive: A549 > 100 µM | HCC 2998 > 100 µM | MOLT-4 > 100 µM | SW-620 > 100 µM | OVCAR-3 > 100 µM | SR > 100 µM | OVCAR-4 > 100 µM | 786-0 > 100 µM | ACHN > 100 µM | UO-31 > 100 µM | RXF 393 > 100 µM | UACC-62 > 100 µM | NCI-H23 > 100 µM | KM-20L2 > 100 µM

CC(=O)OC1CC2(c3ccccc3)C(=O)c3ccccc3N2O1 (stereo unspecified)
inactive: A549 > 100 µM | HCC 2998 > 100 µM | MOLT-4 > 100 µM | SW-620 > 100 µM | SR > 100 µM | OVCAR-4 > 100 µM | 786-0 > 100 µM | ACHN > 100 µM | UO-31 > 100 µM | RXF 393 > 100 µM | CCRF-CEM > 100 µM | UACC-62 > 100 µM | NCI-H23 > 100 µM | KM-20L2 > 100 µM

N#CC(C(=O)C(N)=O)c1ccccc1Cl (stereo unspecified)
inactive: A549 > 100 µM | HCC 2998 > 100 µM | MOLT-4 > 100 µM | SW-620 > 100 µM | OVCAR-3 > 100 µM | CAKI-1 > 100 µM | OVCAR-4 > 100 µM | 786-0 > 100 µM | ACHN > 100 µM | UO-31 > 100 µM | RXF 393 > 100 µM | CCRF-CEM > 100 µM | UACC-62 > 100 µM | NCI-H23 > 100 µM | KM-20L2 > 100 µM
